ChEMBL document CHEMBL1201862, “PubChem BioAssay data set” (2004)
Values joined by “and” are separate entries in the source; they are usually repeats but may differ in a detail not shown here. Equal entries are not always repeated. Active and inactive are the calls of the source.

Assays:
cells [1] = details: HEK293
[2] = HepG2 cell cytotoxicity, dose response, cytotoxicity control, plate reader, dry powder, set 6 (AID 743311); format: functional, cell-based
[3] = A549 cell cytotoxicity, dose response, cytotoxicity control, plate reader, dry powder, set 6 (AID 743312); format: functional, cell-based
[4] = inhibitors of fibronectin matrix deposition, dose response, AH1F cells, Alexa488-FN fluorescence, cherry-picks (AID 1035475); format: functional, cell-based
[5] = inhibitors of intracellular T. cruzi replication, confirmation, NIH3T3 host cells, beta-gal luminescence (AID 2044); format: functional, cell-based;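 note: intracellular parasites grown in NIH/3T3 mouse fibroblasts as host cells; luminescent beta-galactosidase reporter signal from transgenic T. cruzi replicating inside host cells; inhibitors lower the luminescence signal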
[6] = cytotoxicity toward NIH3T3 fibroblasts, dose response, counter-screen, cell-based, ATP luminescence, mouse fibroblasts (AID 2010); format: functional;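 note: cells exposed to compound for about 90 hours before reading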
[7] = cytotoxicity in primary human melanocytes, dose response, cytotoxicity control, cell-based, plate reader, dry powder (AID 651920); format: functional
[8] = MITF Orthogonal Assay: MALME3 CTG Assay Measured in Cell-Based System Using Plate Reader - 2084-04_Inhibitor_Dose_DryPowder_Activity_Set6.; format: functional; details: MALME-3
[9] = MITF Orthogonal Assay: SK-MEL-5 CTG Assay Measured in Cell-Based System Using Plate Reader - 2084-02_Inhibitor_Dose_DryPowder_Activity_Set7.; format: functional
[10] = A375 melanoma cell viability loss, dose response, counter-screen for MITF modulator project, CellTiter-Glo luminescence, dry powder, set 9 (AID 651591); format: functional, cell-based; details: A-375
[11] = TRPM1 promoter luciferase reporter signal decrease, dose response, MITF inhibitor project, cell-based, SK-MEL-5, dry powder, set 9 (AID 651588); format: functional
[12] = TRPM1 promoter luciferase reporter signal decrease, dose response, MITF inhibitor project, cell-based, SK-MEL-5, dry powder, set 8 (AID 624430); format: functional
[13] = MITF: Counter assay: A375 proliferation Measured in Cell-Based System Using Plate Reader - 2084-03_Inhibitor_Dose_DryPowder_Activity_Set8.; format: functional; details: A-375
[14] = SK-MEL-5 parental cell viability reduction, dose response, orthogonal assay for MITF inhibitor project, CellTiter-Glo luminescence, dry powder, set 8 (AID 651586); format: functional, cell-based
[15] = MALME3 melanoma cell viability reduction, dose response, orthogonal assay for MITF inhibitor project, CellTiter-Glo luminescence, dry powder, set 5 (AID 651584); format: functional, cell-based; details: MALME-3
[16] = T. cruzi growth inhibition in host cells, dose response, cell-based, plate reader, dry powder, set 2 (AID 652275); format: functional
[17] = NIH/3T3 fibroblast cytotoxicity, dose response, cytotoxicity control, cell-based, plate reader, dry powder, set 2 (AID 652280); format: functional; details: NIH3T3
[18] = Late stage assay provider results from the probe development effort to identify inhibitors of the Plasmodium falciparum M18 Aspartyl Aminopeptidase (M18AAP): radiolabel-based cell-based dose response assay to identify compounds that inhibit P. falciparum growth in RBCs, Set 2..; format: functional
[19] = Luminescence-based cell-based high throughput dose response assay to identify activators of the DAF-12 from the parasite S. stercoralis (ssDAF-12).; format: functional
[20] = molecular target: T1, Oxysterols receptor LXR-beta (Homo sapiens, UniProt P55055); experiment: LXR agonists, Gal4 luciferase reporter, dose response, counter-screen for ssDAF-12 agonist project, cell-based, luminescence, HEK293, S. stercoralis campaign (AID 720737); format: functional; details: read-out: IC50 (the source's name)
T1 sequence (P55055 whole entry): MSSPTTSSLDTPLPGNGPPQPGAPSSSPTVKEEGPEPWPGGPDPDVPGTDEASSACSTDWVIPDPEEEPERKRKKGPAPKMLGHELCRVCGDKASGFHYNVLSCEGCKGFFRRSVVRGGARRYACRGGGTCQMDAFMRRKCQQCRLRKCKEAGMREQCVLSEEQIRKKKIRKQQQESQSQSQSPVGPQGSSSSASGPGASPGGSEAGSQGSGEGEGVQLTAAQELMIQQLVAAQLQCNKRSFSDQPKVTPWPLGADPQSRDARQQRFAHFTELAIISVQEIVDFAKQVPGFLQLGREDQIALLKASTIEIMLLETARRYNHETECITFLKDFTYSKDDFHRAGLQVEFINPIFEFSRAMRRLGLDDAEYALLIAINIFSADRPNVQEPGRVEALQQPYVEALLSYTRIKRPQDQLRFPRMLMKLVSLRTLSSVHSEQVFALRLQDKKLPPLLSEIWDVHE

[21] = HepG2 cell cytotoxicity, dose response, cytotoxicity control for Shn3 inhibitor project, CellTiter-Glo, cherry-picked (AID 624134); format: functional, cell-based
[22] = reduction of endogenous Shn3 mRNA, dose response, qPCR, Clone20 cells, cherry-pick (AID 743415); format: functional, cell-based
[23] = inhibitors of SNCA 5'UTR-driven reporter translation, confirmation, H4 neuroglioma cells, luminescence (AID 1988); format: functional, cell-based
[24] = Shn3 3'UTR reporter inhibitors, dose response, cell-based, Clone20 osteoblasts, firefly luciferase, cherry-picked (AID 624132); format: functional;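 note: firefly luciferase luminescence from reporter carrying the Shn3 3'UTR in osteoblasts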
[25] = inhibitors of firefly luciferase expression or activity, dose response, H4 neuroglioma cells, luminescence (AID 1990); format: functional, cell-based
[26] = control 3'UTR Renilla luciferase suppression, dose response, counter-screen for Shn3 inhibitor project, cell-based, Clone20-Shn3RL, cherry-picked (AID 624133); format: functional
[27] = reduction of Shn3 3'UTR firefly luciferase signal, dose response, Schnurri-3 inhibitor project, cell-based, Clone20 osteoblasts, cherry-pick, set 2 (AID 720490); format: functional;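 note: actives lower the luminescence signal as inhibitors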
[28] = inhibitors of control Renilla luciferase reporter, dose response, counter-screen for Shn3 3'UTR targeting project, Clone20-Shn3RL cells, dual-Glo, cherry-pick, set 2 (AID 720724); format: functional, cell-based; details: Dual-Go Shn3RL
[29] = A Cell-Based Confirmatory Screen for Compounds that Inhibit VEEV, TC-83 (8).; format: functional
[30] = A Cell-Based Confirmatory Screen for Compounds that Inhibit VEEV, TC-83 (7).; format: functional
[31] = THP-1 cell cytotoxicity, dose response, cytotoxicity control for non-replicating M. tuberculosis project (AID 489025); format: functional
[32] = test system: Streptococcus sp. 'group A'; experiment: growth inhibition of control SK(-) GAS strain, dose response, counter-screen for streptokinase expression inhibitor project, luminescence, kanamycin, BacTiterGlo, confirmation (AID 1900); format: functional, organism-based
cells [33] = format: functional
Streptokinase A = molecular target: T2, Streptokinase A (Streptococcus pyogenes serotype M1, UniProt P10520); experiment: S. pyogenes streptokinase expression inhibitors, potency, dose response, plasminogen activation absorbance, OD405 (AID 1914); format: functional, Streptococcus pyogenes M1 GAS;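 note: secreted streptokinase activity via plasminogen activation per viability signal from cell pellet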
T2 sequence (P10520 whole entry): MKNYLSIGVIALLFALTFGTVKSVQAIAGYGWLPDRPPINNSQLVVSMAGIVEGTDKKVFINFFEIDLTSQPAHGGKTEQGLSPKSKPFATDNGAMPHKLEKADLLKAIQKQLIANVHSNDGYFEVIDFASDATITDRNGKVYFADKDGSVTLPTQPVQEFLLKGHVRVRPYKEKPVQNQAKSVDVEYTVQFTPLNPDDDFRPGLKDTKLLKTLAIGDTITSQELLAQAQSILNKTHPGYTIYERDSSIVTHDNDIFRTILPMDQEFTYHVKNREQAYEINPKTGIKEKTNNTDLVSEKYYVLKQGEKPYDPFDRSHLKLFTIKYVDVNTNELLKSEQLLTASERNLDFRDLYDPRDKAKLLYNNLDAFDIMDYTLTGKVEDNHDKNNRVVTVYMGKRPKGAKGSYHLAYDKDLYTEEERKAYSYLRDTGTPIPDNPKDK

Streptococcus = experiment: Group A Streptococcus viability loss, dose response, counter-screen for streptokinase expression inhibitor project, luminescence, BacTiterGlo (AID 1915); format: functional, organism-based;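 note: potency for reduction of bacterial viability or growth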
[34] = TB: CFU replicating Measured in Microorganism System Using Imaging - 7108-05_Inhibitor_Dose_DryPowder_Activity_Set2.; format: functional
[35] = inhibitors of clade B AD8 Env fusion, dose response, cell-based, cherry-pick (AID 652062); format: functional;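 note: luciferase signal from cell-cell fusion driven by HIV-1 clade B AD8 Env; potency is for inhibitors of fusion seen as a drop in luminescence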
[36] = inhibitors of HIV Env-driven cell fusion, dose response, cherry-pick (AID 652057); format: functional, cell-based
[37] = HIV Env cell-cell fusion inhibitors, dose response, HIV entry, plate reader, dry powder (AID 687023); format: functional, cell-based
[38] = Vero E6 cell cytotoxicity, dose response, cytotoxicity control for non-replicating M. tuberculosis project, secondary assay (AID 492998); format: functional, VeroE6; details: Vero C1008
[39] = C. albicans growth with fluconazole, confirmation, fluorescence, retest (AID 2467); format: functional, cell-based
[40] = NIH-3T3 fibroblast cytotoxicity, dose response, cytotoxicity control, cell-based, fluorescence, Alamar Blue, secondary assay (AID 2327); format: functional;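 note: NIH-3T3 mouse fibroblasts cultured with fluconazole at 8 µg/mL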
[41] = molecular target: 1-phosphatidylinositol 4,5-bisphosphate phosphodiesterase beta-3 (Homo sapiens, UniProt Q01970); experiment: Fluorescence-based biochemical high throughput dose response assay to identify inhibitors of phospholipase C isozymes (PLC-B3).
[42] = molecular target: 1-phosphatidylinositol 4,5-bisphosphate phosphodiesterase gamma-1 (Homo sapiens, UniProt P19174); experiment: Counterscreen for inhibitors of phospholipase C isozymes (PLC-B3): Fluorescence-based biochemical high throughput dose response assay to identify inhibitors of phospholipase C isozymes (PLC-gamma1).
[43] = molecular target: T3, Acyl-homoserine lactone acylase PvdQ (Pseudomonas aeruginosa (strain LESB58), UniProt Q9I194); experiment: P. aeruginosa PvdQ acylase inhibitors, dose response, biochemical, fluorescence, plate reader and imaging, cherry-picks (AID 493231)
T3 sequence (Q9I194 whole entry): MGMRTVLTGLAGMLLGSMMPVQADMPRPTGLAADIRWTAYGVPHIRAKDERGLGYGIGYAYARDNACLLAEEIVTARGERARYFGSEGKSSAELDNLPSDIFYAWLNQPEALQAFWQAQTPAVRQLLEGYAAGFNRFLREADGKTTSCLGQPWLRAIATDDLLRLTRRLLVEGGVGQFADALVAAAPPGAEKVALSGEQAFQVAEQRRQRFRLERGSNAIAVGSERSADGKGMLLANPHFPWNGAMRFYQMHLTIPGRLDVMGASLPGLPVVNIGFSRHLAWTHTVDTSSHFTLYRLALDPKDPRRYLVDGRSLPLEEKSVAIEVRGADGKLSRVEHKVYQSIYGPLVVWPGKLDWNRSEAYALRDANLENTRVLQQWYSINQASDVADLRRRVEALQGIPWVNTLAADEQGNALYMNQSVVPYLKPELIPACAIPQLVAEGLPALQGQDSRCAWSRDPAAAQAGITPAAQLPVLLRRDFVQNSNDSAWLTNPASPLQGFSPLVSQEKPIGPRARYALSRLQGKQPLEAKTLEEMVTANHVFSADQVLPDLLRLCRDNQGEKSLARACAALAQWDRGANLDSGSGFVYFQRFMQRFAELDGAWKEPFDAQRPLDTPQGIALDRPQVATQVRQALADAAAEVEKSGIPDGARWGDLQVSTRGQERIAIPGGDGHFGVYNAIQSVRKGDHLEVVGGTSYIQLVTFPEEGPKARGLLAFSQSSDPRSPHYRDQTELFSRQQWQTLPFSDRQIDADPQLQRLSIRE

[44] = molecular target: T1, Oxysterols receptor LXR-beta; format: functional, cell-based
cells [45] = experiment: cells

Chain of 1-phosphatidylinositol 4,5-bisphosphate phosphodiesterase gamma-1 (P19174 whole entry): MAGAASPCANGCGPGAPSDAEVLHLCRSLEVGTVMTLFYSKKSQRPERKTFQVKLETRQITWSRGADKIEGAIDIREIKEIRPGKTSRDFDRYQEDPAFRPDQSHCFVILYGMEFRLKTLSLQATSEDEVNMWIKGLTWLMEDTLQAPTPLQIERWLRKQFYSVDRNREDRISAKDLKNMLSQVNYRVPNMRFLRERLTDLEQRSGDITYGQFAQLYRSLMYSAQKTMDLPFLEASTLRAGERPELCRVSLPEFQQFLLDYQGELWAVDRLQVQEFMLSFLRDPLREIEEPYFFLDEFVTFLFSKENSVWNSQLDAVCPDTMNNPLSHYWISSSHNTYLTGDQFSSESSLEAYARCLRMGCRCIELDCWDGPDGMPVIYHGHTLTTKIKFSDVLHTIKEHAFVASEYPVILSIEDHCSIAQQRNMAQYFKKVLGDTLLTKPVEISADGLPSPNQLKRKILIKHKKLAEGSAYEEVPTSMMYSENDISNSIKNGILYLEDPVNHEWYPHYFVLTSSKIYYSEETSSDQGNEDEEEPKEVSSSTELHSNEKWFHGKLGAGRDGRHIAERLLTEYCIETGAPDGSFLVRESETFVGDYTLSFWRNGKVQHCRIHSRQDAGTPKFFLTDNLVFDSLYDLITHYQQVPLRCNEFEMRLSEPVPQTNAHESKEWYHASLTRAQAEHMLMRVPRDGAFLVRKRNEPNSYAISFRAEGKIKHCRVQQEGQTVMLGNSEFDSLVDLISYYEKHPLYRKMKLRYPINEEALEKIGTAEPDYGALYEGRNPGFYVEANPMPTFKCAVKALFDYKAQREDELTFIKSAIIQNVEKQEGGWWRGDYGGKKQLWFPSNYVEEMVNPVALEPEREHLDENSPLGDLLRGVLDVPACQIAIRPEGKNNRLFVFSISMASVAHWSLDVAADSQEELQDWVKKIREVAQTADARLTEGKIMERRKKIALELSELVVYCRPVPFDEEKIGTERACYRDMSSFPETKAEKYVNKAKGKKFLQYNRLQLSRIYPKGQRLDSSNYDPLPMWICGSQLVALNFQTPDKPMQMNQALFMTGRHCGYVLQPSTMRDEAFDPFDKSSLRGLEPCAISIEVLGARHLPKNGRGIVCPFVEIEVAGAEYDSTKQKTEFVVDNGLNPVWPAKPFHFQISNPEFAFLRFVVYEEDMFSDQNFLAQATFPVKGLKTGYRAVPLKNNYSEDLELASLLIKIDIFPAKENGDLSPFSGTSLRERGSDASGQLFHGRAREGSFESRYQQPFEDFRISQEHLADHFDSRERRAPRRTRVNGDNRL
Chain of 1-phosphatidylinositol 4,5-bisphosphate phosphodiesterase beta-3 (Q01970 whole entry): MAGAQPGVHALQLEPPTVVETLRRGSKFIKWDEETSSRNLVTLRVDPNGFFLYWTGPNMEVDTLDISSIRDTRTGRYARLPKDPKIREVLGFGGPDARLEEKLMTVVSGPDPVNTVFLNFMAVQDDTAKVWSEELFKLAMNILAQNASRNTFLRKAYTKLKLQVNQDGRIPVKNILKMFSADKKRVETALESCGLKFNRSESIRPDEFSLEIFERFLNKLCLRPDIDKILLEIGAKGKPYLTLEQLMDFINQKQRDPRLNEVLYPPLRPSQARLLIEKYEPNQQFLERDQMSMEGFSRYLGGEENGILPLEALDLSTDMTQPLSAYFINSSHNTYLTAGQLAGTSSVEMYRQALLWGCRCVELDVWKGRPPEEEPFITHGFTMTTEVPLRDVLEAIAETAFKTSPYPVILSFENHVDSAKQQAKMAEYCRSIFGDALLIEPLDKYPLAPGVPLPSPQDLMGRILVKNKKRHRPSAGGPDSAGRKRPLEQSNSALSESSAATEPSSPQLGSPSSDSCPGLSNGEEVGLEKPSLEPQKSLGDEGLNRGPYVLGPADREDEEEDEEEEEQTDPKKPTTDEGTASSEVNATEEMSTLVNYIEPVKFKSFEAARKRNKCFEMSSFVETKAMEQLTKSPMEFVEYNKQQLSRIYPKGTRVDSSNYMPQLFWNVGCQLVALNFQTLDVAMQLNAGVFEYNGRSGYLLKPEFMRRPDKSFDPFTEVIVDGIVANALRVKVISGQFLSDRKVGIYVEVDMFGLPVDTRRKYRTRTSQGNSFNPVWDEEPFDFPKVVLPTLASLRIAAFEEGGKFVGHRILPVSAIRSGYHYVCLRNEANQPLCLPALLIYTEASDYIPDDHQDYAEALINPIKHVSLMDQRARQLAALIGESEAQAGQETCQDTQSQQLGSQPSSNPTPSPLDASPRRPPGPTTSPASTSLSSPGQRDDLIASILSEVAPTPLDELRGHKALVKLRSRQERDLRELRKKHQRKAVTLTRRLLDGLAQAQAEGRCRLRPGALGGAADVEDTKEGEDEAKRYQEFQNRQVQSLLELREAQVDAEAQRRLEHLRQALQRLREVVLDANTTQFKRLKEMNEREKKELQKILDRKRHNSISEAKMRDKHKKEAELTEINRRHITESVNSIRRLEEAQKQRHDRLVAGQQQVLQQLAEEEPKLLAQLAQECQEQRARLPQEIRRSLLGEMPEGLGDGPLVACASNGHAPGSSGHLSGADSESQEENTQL

c1ccc(-c2ccc(OCCn3cnc4ccccc43)cc2)cc1
AC50 (cells [1]): > 52 µM (inactive)
AC50 [2]: 5.92 µM (active)
AC50 [3]: 0.66 µM (active)

O=C(Nc1cc(Sc2nc3ccccc3s2)cc([N+](=O)[O-])c1)c1ccccc1F
AC50 [4]: 24.3 µM (active)
EC50 [5]: 1.92 µM (active)
EC50 [6]: > 60 µM (not active)

NS(=O)(=O)c1ccc(NC2=CC(=O)c3ccccc3C2=O)cc1
AC50 [7]: 7.15 µM (active) and 7.63 µM (active)
AC50 [8]: 0.703 µM (active)
AC50 [9]: 0.0771 µM (active)
AC50 [10]: > 70 µM (inactive)
AC50 [11]: 1.23 µM (active)
AC50 [12]: 1.16 µM (active)
AC50 [13]: > 70 µM (inactive)
AC50 [14]: 0.751 µM (active)
AC50 [15]: 0.703 µM (active)

Cc1cccc(-c2ccc([C@H]3[C@H](CO)N4CCCCN(Cc5cccnc5)C[C@@H]34)cc2)c1
AC50 [16]: 0.259 µM (active)
AC50 [17]: 17.9 µM (active)

Cc1c(OCc2ccccc2)c(=O)ccn1CCNc1c2ccccc2nc2ccccc12
IC50 [18]: 4 µM (active)

Cc1ccc([N+](=O)[O-])cc1NC(=O)C1CCCC1
IC50 [19]: > 67.5 µM (inactive)
EC50 [20]: > 67.5 µM (inactive)

COc1ccc(NC(=O)c2nc(S(=O)(=O)Cc3cccc(C)c3)ncc2Cl)c(OC)c1
AC50 [21]: > 70 µM (inactive)
AC50 [22]: 10 µM (active)
EC50 [23]: 36.7 µM (active)
AC50 [24]: 0.299 µM (active)
EC50 [25]: 19.2 µM (active)
AC50 [26]: 8.06 µM (active)
AC50 [27]: 1.48 µM (active)
AC50 [28]: 3.35 µM (active)

O=c1c2cc([N+](=O)[O-])ccc2nc(CN2CCCNCC2)n1-c1ccccc1
IC50 [29]: 0.94 µM (active)
IC50 [30]: 2.48 µM (inconclusive)

Cn1c(NC(=O)c2ccccc2)nc2ccccc21
CC50 [31]: > 40 µM (active)
EC50 [32]: 14.8 µM (active)
IC50 (cells [33]): 2.41 µM (active)
EC50 (Streptokinase A): > 150 µM (not active)
EC50 (Streptococcus): > 150 µM (not active)
AbsAC90 [34]: 299.99 µM

CCCC#Cc1ccc2c(c1)O[C@@H](CN(C)S(=O)(=O)c1cccc(F)c1)[C@@H](C)CN([C@H](C)CO)S2(=O)=O
AC50 [35]: 7.8 µM (active)
AC50 [36]: 10.8 µM (active)
AC50 [37]: 12.4 µM (active)

Cc1ccc(S(=O)(=O)CCC(=O)Nc2nc(-c3ccncc3)cs2)cc1
CC50 [38]: > 20 µM (active)
CC50 [31]: > 40 µM (active)
EC50 [39]: 6.58 µM (active)
EC50 [40]: 17.1 µM (inconclusive)
IC50 [41]: > 122 µM (inactive)
IC50 [42]: > 122 µM (inactive)

COc1ccc(-c2cc(=O)c3ccccc3s2)cc1
AC50 [43]: > 100 µM (inactive)
EC50 [44]: > 67.5 µM (inactive)
EC50 (cells [45]): > 67.5 µM (inactive)
